Data as given in US4879277A, “Antiviral compositions and methods” (The United States of America as represented by the …, priority 1987, dated 1989).
“Also recorded” adds a separate entry of the source.

Columns and labels:
HIV [1] = assay: In vitro inhibition of the cytopathic effect of HIV in ATH8 cells; type: cell-based, human immunodeficiency virus
Excerpt: ATH8 cells (2×10^5) were pre-exposed to polybrene, and exposed to HIV in culture tubes (2,000 virus particles per cell), in the presence or absence of various concentrations of 2',3'-dideoxycytidine (ddC).
(§1) Of critical importance to the biological activation of the 2',3'-dideoxycytidine analogues inside human cells, both as antiviral and as antitumor agents, is their anabolic conversion to nucleotides inside cells. This cannot be assumed to occur because not all nucleoside analgoues can be adequately phosphorylated. The ability of HIV-infected human T-lymphoblasts to phosphorylate 2',3'-dideoxycytidine nucleoside (ddCyd) was tested. […] The incubation was terminated after 24 hours of drug exposure, and the TCA-soluble fraction of the cell lysate was resolved on HPLC, utilizing a radial compression column of Partisil-10 SAX with a gradient of ammonium phosphate.

HIV-infected ATH8 cells = test system: HIV-infected ATH8 cells
Protocol: as §1

HIV [2] = assay: In vitro inhibition of infectivity and replication of HIV (p24 gag expression in H9 cells); type: cell-based
Protocol: The in vitro inhibition of the infectivity and replication of the HIV virus by ddC was also tested. The results are shown in FIG. 4-B. In this test, 10^5 H9 cells were exposed to various concentrations of ddC for 4 hours, then to 2 ug/ml polybrene for 30 minutes, pelleted, and then exposed to HIV (3,000 virus particles/cell) for 1.5 hours. Cells were resuspended in fresh complete medium and cultured in tubes at 37° C. in 5% CO2 -containing humidified air, and under conditions in which the cells were continuously exposed to ddC. On days 8 (left), 9 (middle), and 10 (right) in culture, the percentage of the target H9 cells expressing p24 gag protein of HIV was determined by indirect immunofluorescence microscopy by using anti-HIV p24 murine monocolonal antibody.

T4 cells [3] = assay: T4 cell number and T4/T8 ratio in AIDS patients receiving ddC; type: in vivo, human; details: for T4/T8 Ratio, Start Treatment / T4/mm3, Start Treatment: start of treatment
Excerpt: (§2) The efficacy of the application of 2',3'-dideoxycytidine in human use is shown graphically in Table I, where the absolute number of T4 cells and the T4/T8 ratio both show an increase in the T cells, indicating improvements of the immune system in patients with AIDS and its related conditions following therapy. […] It has also been shown that the circulating p24 antigen-level (a measure of viral replication in a patient's body) falls, following treatment with these compositions.
*Patients 1 and 2 received one dose of ddC every 8 hours, and patient 3
received one dose every 4 hours. Patient 1 received intravenous (IV)
dosing throughout; patient 2 received IV dosing for 21 days, followed by
oral dosing; patient 3 received IV dosing throughout. IV dosing was given
as 1 hour infusions. For oral dosing, the ddC was administered dissolved
in 0.1 ml of 0.9% sodium chloride solution and approximately 100 ml of
orange juice. Each patient received a 1 hour intravenous infusion (test
dose) of ddC two days prior to the initiating of dosing.

HIV p24 antigen = assay: Circulating HIV p24 antigen level in patients; type: in vivo, human immunodeficiency virus; details: following treatment
Excerpt: as §2
levels in the blood after one to two weeks of treatment.

[4] = Toxicity observed in humans likely due to ddC administration; type: in vivo, human
Excerpt: Toxicity toward humans has been shown by the observation residing in Table II.
Toxicity Observed Which is
Likely to be Due to ddC Administration

[5] = test system: Human T4^+ T lymphocytes (ATH8 cell line); assay: Anabolism of ddCyd by human T4+ T lymphocytes (intracellular concentration); type: in vitro ADME; details: ATH8 cells exposed to 1 uM ddCyd for 24 hours
Protocol: * After incubation with ^3 Hlabelled 2',3dideoxycytidine (ddCyd) (1
exchange HPLC using radial compression columns of PartisilSAX equilibrate
phosphate, pH 3.8. ddCMP, 2',3dideoxycytidine-5monophosphate; ddCDP,

Clone TM 3 = assay: In vitro immune reactivity of normal helper/inducer TM3 cells (3H-uridine incorporation); type: cell-based, human; details: 72 hours, tetanus toxoid, control (None) 12 ± 1
PBM + PHA = assay: In vitro immune reactivity of PBM stimulated with PHA (3H-uridine incorporation); type: cell-based, human; details: 72 hours, control (None) 82 ± 1
Protocol: (§3) 5×10^4 normal helper/inducer TM3 cells were stimulated with tetanus toxoid (0.6 limiting flocculation units/ml) plus 10^5 irradiated (4,000 rad) autologous peripheral blood mononuclear cells (PBM) as a source of accessory cells, and were cultured for 72 hours in the presence or absence of ddC. After exposure to uCi ^3 H-uridine for the final 5 hours, cells were harvested onto glass fibers and the incorporated radioactivity was counted. Data are expressed as the arithmetic mean counts per minute (×10^3)±1 standard deviation triplicate determinations. 10^6 PBM from a healthy individual were stimulated with phytohaemagglutinin (PHA) or pokeweek mitogen (PWM) and cultured for 72 hours, and treated as described above. ^3 H-uridine incorporation was used as an indicator of activiation of the responder cells.

PBM + PWM = assay: In vitro immune reactivity of PBM stimulated with PWM (3H-uridine incorporation); type: cell-based, human; details: 72 hours, control (None) 24 ± 1
Protocol: as §3

cytidine deaminase = assay: Sensitivity to cytidine deaminase; type: in vitro ADME
T cells = assay: Safety to T cells (studies of anabolic phosphorylation on human cells); type: cell-based; details: comparable dosages
normal lymphocytes = test system: normal lymphocytes
Protocol: as §3

T4 cells [6] = assay: T4 cell number and T4/T8 ratio in AIDS patients receiving ddC; type: in vivo, human; details: patient 2, 0.03 mg/kg every 8 hours, IV then oral, 19 days receiving ddC
[7] = Example 7, concentration (uM) figure not given
[8] = AIDS patients, following therapy
[9] = patient 1, 0.25 mg/kg every 8 hours IV, 8 days receiving ddC
[10] = patient 1, 0.25 mg/kg every 8 hours IV
[11] = patient 2, 0.03 mg/kg every 8 hours, IV then oral
[12] = patient 3, 0.03 mg/kg every 4 hours IV, 12 days receiving ddC
[13] = patient 3, 0.03 mg/kg every 4 hours IV
[14] = 0.03 mg/kg 3×/day intravenous for 12 days followed by 0.3 mg/kg 3×/day orally

With Nc1ccn([C@H]2C[C@H](O)[C@@H](CO)O2)c(=O)n1 [dCYD, reference compound] as the compound, how does the “reversal of the anti-HIV effect of ddCyd” value (HIV [1]; dCYD with ddCyd) read?
Its value is “reverses the anti-HIV effect of ddCyd”.

And the “phosphorylation of ddCYD” value (HIV-infected ATH8 cells; dCYD (5 uM) added together with ddCYD)?
Its value is “phosphorylation was blocked”.

For Nc1ccn([C@H]2CC[C@@H](CO)O2)c(=O)n1 [ddC, 2',3'-dideoxycytidine], which “inhibition of the cytopathic effect of the virus” value (HIV [1]; 1 uM ddCyd) is on record?
Its value is 100%.

What about the “inhibition of the cytopathic effect of HIV” value (HIV [1]; ATH8 cells, day 5, 2,000 virus particles per cell, FIG. 4-A) of the same compound?
Its value is “almost complete inhibition”.

What about the “inhibition of the cytopathic effect of HIV” value (HIV [1]; [7]) of the same compound?
The value was “virtually complete inhibition”.

And the “inhibition of the infectivity of the virus” value (HIV [2]; 1 uM ddCyd)?
The value was 100%.

And the “inhibition of the replication of the virus” value (HIV [2]; 1 uM ddCyd)?
The value was 100%.

And the “inhibition of the viral p24 expression” value (HIV [2]; [7])?
The value was “virtually complete inhibition”.

And the “inhibition of the infectivity and replication of HIV” value (HIV [2]; H9 cells, p24 gag expression, days 8, 9, 10, 3,000 virus particles/cell, FIG. 4-B)?
Its value is “almost complete inhibition”.

And the “T4/T8 ratio (change)” value (T4 cells [3]; [8])?
Its value is “increase”.

And the “absolute number of T4 cells” value (T4 cells [3]; [8])?
The value was “increase”.

What about the “T4/T8 Ratio, End Treatment” value (T4 cells [3]; [9]) of the same compound?
Its value is 0.40.

What about the “T/mm3, End Treatment” value (T4 cells [3]; [9]) of the same compound?
The value was 530 /mm3.

What about the “T4/T8 Ratio, Start Treatment” value (T4 cells [3]; [10]) of the same compound?
Its value is 0.20.

And the “T4/mm3, Start Treatment” value (T4 cells [3]; [10])?
Its value is 309 /mm3.

What about the “T4/T8 Ratio, Start Treatment” value (T4 cells [3]; [11]) of the same compound?
The value was 0.39.

What about the “T4/mm3, Start Treatment” value (T4 cells [3]; [11]) of the same compound?
The value was 260 /mm3.

And the “T4/T8 Ratio, End Treatment” value (T4 cells [3]; [12])?
The value was 0.51.

What about the “T/mm3, End Treatment” value (T4 cells [3]; [12]) of the same compound?
The value was 307 /mm3.

What about the “T4/T8 Ratio, Start Treatment” value (T4 cells [3]; [13]) of the same compound?
Its value is 0.26.

What about the “T4/mm3, Start Treatment” value (T4 cells [3]; [13]) of the same compound?
Its value is 246 /mm3.

And the “circulating p24 antigen-level” value (HIV p24 antigen)?
The value was “falls”.

And the “Tolerated for up to, without significant toxicity in some patients” value [4, 14]?
The value was “up to 40 days”.

And the “minor toxicity in one patient” value [4, 14]?
The value was “skin rash and oral ulcers”.

What about the “Tolerated for up to, without significant toxicity” value ([4]; 0.03 mg/kg 6×/day intravenous for 14 days, followed by 0.03 mg/kg 6×/day orally) of the same compound?
The value was “up to 18 days”.

What about the Toxicity ([4]; 0.25 mg/kg 3×/day intravenous) of the same compound?
Its Toxicity is “Thrombocytopenia; also recorded: skin rash”.

And the “platelets, before drop” value ([4]; 0.25 mg/kg 3×/day intravenous, dropped from)?
The value was 234,000 /mm^3.

And the “platelets, after drop” value ([4]; 0.25 mg/kg 3×/day intravenous, dropped to)?
The value was 68,000 /mm^3.

And the minor toxicities ([4]; humans)?
Its minor toxicities is “skin rash and aphthous stomatitis”.

What about the “toxic effect in humans” value ([4]; humans) of the same compound?
Its value is “bone marrow suppression (decreased platelets)”.

What about the “toxicity in some patients with prolonged administration” value ([4]; some patients, prolonged administration) of the same compound?
Its value is “small fiber peripheral neuropathy”.

And the “Intracellular concentration of ddCDP” value [5]?
Its value is 1.20 µM.

And the “Intracellular concentration of ddCDPch” value [5]?
The value was 1.10 µM.

And the “Intracellular concentration of ddCMP” value [5]?
The value was 2.10 µM.

What about the “Intracellular concentration of ddCTP” value [5] of the same compound?
The value was 0.5 µM.

And the “Intracellular concentration of ddCyd” value [5]?
The value was 6.40 µM.

What about the “difference between uninfected and HIV-infected ATH8 cells in ability to phosphorylate ddCYD” value (HIV-infected ATH8 cells) of the same compound?
The value was “No significant qualitative or quantitative differences”.

And the “mean counts per minute (×10^3) ± 1 standard deviation, 3H-uridine incorporation” value (Clone TM 3; 1 uM ddC)?
Its value is 13 ± 1 counts per minute (×10^3).

What about the “mean counts per minute (×10^3) ± 1 standard deviation, 3H-uridine incorporation” value (Clone TM 3; 10 uM ddC) of the same compound?
The value was 8 ± 1 counts per minute (×10^3).

And the “mean counts per minute (×10^3) ± 1 standard deviation, 3H-uridine incorporation” value (PBM + PHA; 1 uM ddC)?
The value was 101 ± 1 counts per minute (×10^3).

And the “mean counts per minute (×10^3) ± 1 standard deviation, 3H-uridine incorporation” value (PBM + PHA; 10 uM ddC)?
The value was 86 ± 3 counts per minute (×10^3).

What about the “mean counts per minute (×10^3) ± 1 standard deviation, 3H-uridine incorporation” value (PBM + PWM; 1 uM ddC) of the same compound?
Its value is 23 ± 3 counts per minute (×10^3).

What about the “mean counts per minute (×10^3) ± 1 standard deviation, 3H-uridine incorporation” value (PBM + PWM; 10 uM ddC) of the same compound?
Its value is 15 ± 3 counts per minute (×10^3).

And the “sensitivity to cytidine deaminase” value (cytidine deaminase)?
The value was “not sensitive to cytidine deaminase”.

And the “safety to T cells” value (T cells)?
Its value is “safe and non-lethal to T cells”.

And the harm to cells (normal lymphocytes)?
The harm to cells was “not harmed by drug concentrations that exceed the virustatic dose”.

What about the “T4/T8 Ratio, End Treatment” value (T4 cells [6]) of the same compound?
The value was 0.47.

What about the “T/mm3, End Treatment” value (T4 cells [6]) of the same compound?
The value was 326 /mm3.
